Data on 2 compounds can be found in ChEMBL document CHEMBL1152013, “()-Phenylahistin: A new mammalian cell cycle inhibitor produced by aspergillus ustus” (Bioorg Med Chem Lett, 1997).

The structures appear in SMILES notation.

For the experiment, the system named is P388. Briefly: Inhibitory concentration required for cytotoxic effect against P388 murine leukemia cells. It is filed as functional, cell-based. Conditions: Mus musculus.

The compound `C=CC(C)(C)c1[nH]cnc1/C=C1\NC(=O)[C@H](Cc2ccccc2)NC1=O` registered an IC50 of 0.35 µM.

The compound `C=CC(C)(C)c1[nH]cnc1/C=C1\NC(=O)[C@@H](Cc2ccccc2)NC1=O` had an IC50 of 38 µM.
